The results in this text go back to publication PMC3021963 (ChemMedChem, 2010).

The target in one test is T1, MbtI (Mycobacterium tuberculosis, UniProt P9WFX1).
T1 sequence (P9WFX1 whole entry, looked up): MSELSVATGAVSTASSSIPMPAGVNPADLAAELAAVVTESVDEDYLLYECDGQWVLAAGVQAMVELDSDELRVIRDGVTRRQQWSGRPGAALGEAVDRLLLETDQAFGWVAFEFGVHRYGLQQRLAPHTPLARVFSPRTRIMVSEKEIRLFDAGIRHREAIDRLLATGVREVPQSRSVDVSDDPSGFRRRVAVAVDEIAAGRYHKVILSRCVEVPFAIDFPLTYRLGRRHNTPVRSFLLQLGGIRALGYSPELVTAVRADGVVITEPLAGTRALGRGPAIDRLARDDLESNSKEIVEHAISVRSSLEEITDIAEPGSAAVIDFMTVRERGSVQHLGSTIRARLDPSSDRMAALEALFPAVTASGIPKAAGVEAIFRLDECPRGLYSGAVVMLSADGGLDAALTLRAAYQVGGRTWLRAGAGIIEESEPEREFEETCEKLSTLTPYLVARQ
Assay: not given
It counts as biochemical.
Settings: not given
On to `CC(=O)n1c(=S)[nH]c2ccccc21` [Compound 4, 1-Acetylbenzimidazole-2-thione], for which the Ki – broadly, a dissociation constant, usually derived from enzyme kinetics or from competition with a known ligand – came out at 9.7 µM.

The test is the same for the next values; noted with them: noncompetitive inhibition model.
In turn, `CC(=O)n1c(=S)[nH]c2ccccc21` [Compound 4, 1-Acetylbenzimidazole-2-thione] returned a α value of 1.

Staying with this test, now noted: with respect to chorismate.
As to `CC(=O)n1c(=S)[nH]c2ccccc21` [Compound 4, 1-Acetylbenzimidazole-2-thione], the mode of inhibition entry is “noncompetitive inhibition”.

Another test deals with T1, MbtI. Put plainly: continuous fluorescence assay of MbtI. It counts as biochemical.
Settings: not given
On to `CC(=O)NS(=O)(=O)c1cccc(S(=O)(=O)c2ccc(Cl)c(Cl)c2)c1` [Compound 32, N-[3-(3,4-Dichlorophenylsulfonyl)phenylsulfonyl]acetamide], for which the “MbtI inhibition (in words)” value is “completely inactive”.
Regarding `CC(=O)n1c(=S)[nH]c2cc(C)ccc21` [Compound 41, 1-Acetyl-5/6-methylbenzimidazole-2-thione], the “change in potency relative to parent compound 4” value was “no impact on potency was observed”.
As for `CC(=O)n1cc[nH]c1=S` [Compound 47, 1-Acetylimidazole-2-thione], the “MbtI inhibition (in words)” value is listed as “abolished all activity”.
For `S=c1[nH]c2ccccc2[nH]1` [Compound 34, benzimidazole-2-thione], the “change in potency relative to parent compound 4” value is reported as “six- to nine-fold decreases in potency”.
As for `CSc1nc2ccccc2[nH]1` [Compound 46, 2-thiomethylbenzimidazole], the “MbtI inhibition (in words)” value is “completely inactive”.
Consider `Cn1c(=S)[nH]c2ccccc21` [Compound 40, N-methylbenzimidazole-2-thione], for which the “change in potency relative to parent compound 4” value was “six- to nine-fold decreases in potency”.
Consider `NS(=O)(=O)c1cccc(S(=O)(=O)c2ccc(Cl)cc2)c1` [Compound 26, 3-(4-Chlorophenylsulfonyl)benzenesulfonamide], for which the “MbtI inhibition (in words)” value is “complete loss of activity”.
Same read-out and setting: the result for `CC(=O)N1C(=O)Cc2ccccc21` [Compound 43, 1-Acetyl-2-oxindole] reads “completely inactive”; that for `CC(=O)n1c(=O)[nH]c2ccccc21` [Compound 45, 1-Acetylbenzimidazole-2-one], “completely inactive”.
Consider `CC(=O)n1c(=S)oc2ccccc21` [Compound 42, 1-Acetylbenzoxazole-2-thione], for which the “change in potency relative to parent compound 4” value is recorded as “about twofold less potent”.
For `CC(=O)n1cnc2ccccc21` [Compound 44, 1-Acetylbenzimidazole], the “MbtI inhibition (in words)” value was “completely inactive”.
On the same count and under the same terms, next, `NS(=O)(=O)c1cccc(S(=O)(=O)c2ccccc2)c1` [Compound 27, 3-(Phenylsulfonyl)benzenesulfonamide]: “complete loss of activity”.

The same test, now with this note: IC50, Table 2, class II diarylsulfones.
Regarding `CC(=O)NS(=O)(=O)c1cccc(S(=O)(=O)c2ccc(Cl)c(Cl)c2)c1` [Compound 32, N-[3-(3,4-Dichlorophenylsulfonyl)phenylsulfonyl]acetamide], the IC50 (commonly the concentration at which inhibition is half-maximal) is > 200 µM.
On the same count and under the same terms, the result for `CNS(=O)(=O)c1cccc(S(=O)(=O)c2ccc(Cl)c(Cl)c2)c1` [Compound 29, 3-(3,4-Dichlorophenylsulfonyl)-N-methylbenzenesulfonamide] reads > 200 µM; that for `O=S(=O)(NCc1ccccc1)c1cccc(S(=O)(=O)c2ccc(Cl)c(Cl)c2)c1` [Compound 30, N-Benzyl-3-(3,4-dichlorophenylsulfonyl)benzenesulfonamide], > 200 µM.
`Nc1ccc(S(=O)(=O)c2ccc(N)cc2)cc1` [Compound 33, 4,4′-diaminodiphenylsulfone, reference compound] gave an IC50 of 118 ± 19 µM.
Same read-out and setting: the result for `CNS(=O)(=O)c1cccc(S(=O)(=O)c2ccccc2)c1` [Compound 28, N-Methyl-3-(phenylsulfonyl)benzenesulfonamide] reads > 200 µM; that for `NS(=O)(=O)c1cccc(S(=O)(=O)c2ccc(Cl)cc2)c1` [Compound 26, 3-(4-Chlorophenylsulfonyl)benzenesulfonamide], > 200 µM; that for `NS(=O)(=O)c1cccc(S(=O)(=O)c2ccc(Cl)c(Cl)c2)c1` [Compound 8, 3-(3,4-Dichlorophenylsulfonyl)benzenesulfonamide], 35 µM.
On to `NS(=O)(=O)c1cccc(S(=O)(=O)c2ccccc2)c1` [Compound 27, 3-(Phenylsulfonyl)benzenesulfonamide], for which the half-maximal inhibitory concentration (IC50) was > 200 µM.

Still in this test, the particulars now being: Table 1; Hill slope of concentration-response plot.
Regarding `CC(=O)n1c(=S)[nH]c2ccccc21` [Compound 4, 1-Acetylbenzimidazole-2-thione], the “Fluorescence Assay Hill” value was 1.71.
For `NS(=O)(=O)c1cccc(S(=O)(=O)c2ccc(Cl)c(Cl)c2)c1` [Compound 8, 3-(3,4-Dichlorophenylsulfonyl)benzenesulfonamide], the “Fluorescence Assay Hill” value came to 0.85.

The same test, now with this note: Table 2, class II diarylsulfones.
`NS(=O)(=O)c1cccc(S(=O)(=O)c2ccc(Cl)c(Cl)c2)c1` [Compound 8, 3-(3,4-Dichlorophenylsulfonyl)benzenesulfonamide]: the “Hill Slope” value is 0.85.
Turning to `O=S(=O)(c1cccc(S(=O)(=O)N2CCOCC2)c1)c1ccc(Cl)c(Cl)c1` [Compound 31, N-[3-(3,4-Dichlorophenylsulfonyl)phenylsulfonyl]morpholine], the IC50 was > 200 µM.

Staying with this test, now noted: Table 3, class III benzimidazole-2-thiones.
`CC(=O)n1c(=S)[nH]c2cc(C)ccc21` [Compound 41, 1-Acetyl-5/6-methylbenzimidazole-2-thione]: the “Hill Slope” value came to 1.20.
`CC(=O)n1c(=S)[nH]c2ccccc21` [Compound 4, 1-Acetylbenzimidazole-2-thione]: the “Hill Slope” value came out at 1.00.
As to `S=c1[nH]c2ccccc2[nH]1` [Compound 34, benzimidazole-2-thione], the “Hill Slope” value is reported as 0.90.
For the compound `Cn1c(=S)[nH]c2ccccc21` [Compound 40, N-methylbenzimidazole-2-thione], the “Hill Slope” value worked out at 1.20.
For `CC(=O)n1c(=S)oc2ccccc21` [Compound 42, 1-Acetylbenzoxazole-2-thione], the “Hill Slope” value worked out at 1.10.

The same test, now with this note: Table 3, class III benzimidazole-2-thiones; synthetically prepared compounds.
As to `CC(=O)n1c(=S)[nH]c2cc(C)ccc21` [Compound 41, 1-Acetyl-5/6-methylbenzimidazole-2-thione], the IC50 is 7.6 ± 0.4 µM.
On the same count and under the same terms, the result for `CSc1nc2ccccc2[nH]1` [Compound 46, 2-thiomethylbenzimidazole] reads > 200 µM.
`CC(=O)n1c(=S)oc2ccccc21` [Compound 42, 1-Acetylbenzoxazole-2-thione] gave an IC50 of 21.8 ± 1.4 µM.

Another test deals with T1, MbtI. Put plainly: HPLC end-point assay of MbtI.
Settings: not given
It counts as biochemical.
The compound `CC(=O)n1c(=S)[nH]c2ccccc21` [Compound 4, 1-Acetylbenzimidazole-2-thione] displayed a concentration for half-maximal inhibition (IC50) of 5.16 ± 0.49 µM.
In turn, `NS(=O)(=O)c1cccc(S(=O)(=O)c2ccc(Cl)c(Cl)c2)c1` [Compound 8, 3-(3,4-Dichlorophenylsulfonyl)benzenesulfonamide] displayed an IC50 of 49.2 ± 11.6 µM.

The same test, now with this note: Table 1; Hill slope of concentration-response plot.
Take `CC(=O)n1c(=S)[nH]c2ccccc21` [Compound 4, 1-Acetylbenzimidazole-2-thione]: the “HPLC Assay Hill” value is 1.23.
Still for that read-out and setting: the result for `NS(=O)(=O)c1cccc(S(=O)(=O)c2ccc(Cl)c(Cl)c2)c1` [Compound 8, 3-(3,4-Dichlorophenylsulfonyl)benzenesulfonamide] reads 0.7.
